Laboratory results: patent US11000515B2, “Compounds that interact with the Ras superfamily for the treatment of cancers, inflammatory diseases, rasopathies, and fibrotic disease” (Shy Therapeutics LLC, priority 2017, dated 2021)
Like-named read-outs stand apart in the source and are kept apart here.

Columns and labels:
KRas Q61H mutant = KRas Q61H mutant (Homo sapiens (Human), UniProt P01116, Q61H); experiment: Ras GTP binding domain inhibition assay (labeled GTP); conditions: 20 μM compound
Procedure: (§1) Buffer-I: • 50 mM Tris, pH 7.5 • 150 mM NaCl (optional) • 1 mM MgCl2 • 1 mM DTT. • KRas G12D mutant protein was expressed as a His-tagged protein. Purified His-KRas G12D protein was diluted in buffer-I to a final concentration of 3-10 μg/ml. • 200 μl of the diluted His-KRas G12D protein was added to a nickel coated 96 well plate and incubated overnight at 4° C. • The next day, wells were washed 3× in 200 μl of Buffer-I. • Then 200 μl of Buffer-I were added to each well in the presence of 1% DMSO. • Tested compounds were added to the protein-coated wells at a concentration of 20 μM, and incubated for 3 hours at room temperature. While performing IC50 measurements a serial dilution of all tested concentrations was prepared.
(§2) Then 22 μl of Cy3-GTP or Cy5-GTP was added to each well. The labeled GTP was incubated for 45 min. at room temperature. • Following GTP incubation, wells were washed 3× in Buffer-I, and 200 μl of Buffer-I were added to each well. • Following washes, the amount of bound labeled-GTP was measured with an Eppendorf AF2200 plate reader.
(§3) By substituting KRas G12D mutant protein with KRas G12C mutant, KRas wild type, KRas Q61H mutant, KRas G12D/Q61H double mutant or KRas G12C/Q61H double mutant under the assay conditions described above, KRas G12C mutant KRas wild type, KRas Q61H mutant, KRas G12D/Q61H double mutant and KRas G12C/Q61H double mutant inhibition, respectively, were each determined.

[1] = target: KRas G12D/Q61H double mutant (Homo sapiens (Human), UniProt P01116, G12D/Q61H); experiment: as above
Procedure: as §1, §2, §3

[2] = target: KRas G12C/Q61H double mutant (Homo sapiens (Human), UniProt P01116, G12C/Q61H); experiment: as above
Procedure: as §1, §2, §3

[3] = test system: IL6 production in RAW 264.7 macrophage cell line; experiment: Mouse IL6 quantification assay (LPS-stimulated RAW 264.7, ELISA); type: cell-based; conditions: RAW264.7, LPS-stimulated RAW 264.7 macrophage cell line, read-out: IL-6 % Inhibition at 30 μM
[4] = test system: TNFα production in RAW 264.7 macrophage cell line; experiment: Mouse TNF alpha quantification assay (LPS-stimulated RAW 264.7, ELISA); type: cell-based; conditions: RAW264.7, LPS-stimulated RAW 264.7 macrophage cell line, read-out: TNF-α % Inhibition at 30 μM
KRas G12C mutant = KRas G12C mutant (Homo sapiens (Human), UniProt P01116, G12C); experiment: Ras GTP binding domain inhibition assay (labeled GTP)
Procedure: as §1, §2, §3

KRas wild type = KRas wild type (Homo sapiens (Human), UniProt P01116); experiment: as above
Procedure: as §1, §2, §3

KRas G12D mutant protein = KRas G12D mutant protein (Homo sapiens (Human), UniProt P01116, G12D); experiment: as above
Procedure: The following method was developed as specific assay for KRas G12D mutant protein.
as §1, §2

[5] = compound at 20 μM, read-out: % Inhibition at 20 μM, KRas G12D Q61H
[6] = 20 μM compound, read-out: % Inhibition at 20 μM, KRas G12D Q61H
[7] = 20 μM, read-out: KRas G12D Q61H % Inh.

Chain of KRas G12C/Q61H double mutant (P01116-2 other isoform, or with tags, fused parts or gaps G12C/Q61H): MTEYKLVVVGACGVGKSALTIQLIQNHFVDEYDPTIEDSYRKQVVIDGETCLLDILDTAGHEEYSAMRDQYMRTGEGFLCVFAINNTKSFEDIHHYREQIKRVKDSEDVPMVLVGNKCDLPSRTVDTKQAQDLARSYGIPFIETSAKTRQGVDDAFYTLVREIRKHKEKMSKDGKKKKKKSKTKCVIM
Chain of KRas wild type (P01116-2 other isoform, or with tags, fused parts or gaps): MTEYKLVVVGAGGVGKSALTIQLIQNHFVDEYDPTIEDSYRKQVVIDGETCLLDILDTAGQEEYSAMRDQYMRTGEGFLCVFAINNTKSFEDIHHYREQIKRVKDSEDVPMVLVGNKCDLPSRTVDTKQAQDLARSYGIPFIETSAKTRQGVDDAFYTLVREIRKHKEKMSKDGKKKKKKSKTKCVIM
Chain of KRas G12C mutant (P01116-2 other isoform, or with tags, fused parts or gaps G12C): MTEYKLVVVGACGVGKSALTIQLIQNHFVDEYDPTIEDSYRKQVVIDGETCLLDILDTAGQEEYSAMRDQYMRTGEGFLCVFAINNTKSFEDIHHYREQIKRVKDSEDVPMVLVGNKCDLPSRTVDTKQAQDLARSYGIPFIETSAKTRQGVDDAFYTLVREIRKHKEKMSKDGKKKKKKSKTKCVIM
Chain of KRas G12D/Q61H double mutant (P01116-2 other isoform, or with tags, fused parts or gaps G12D/Q61H): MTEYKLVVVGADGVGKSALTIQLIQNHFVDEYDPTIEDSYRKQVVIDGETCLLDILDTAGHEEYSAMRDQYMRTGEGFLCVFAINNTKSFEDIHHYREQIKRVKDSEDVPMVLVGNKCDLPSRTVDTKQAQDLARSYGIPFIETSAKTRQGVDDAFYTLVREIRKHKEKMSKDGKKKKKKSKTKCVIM
Chain of KRas G12D mutant protein (P01116-2 other isoform, or with tags, fused parts or gaps G12D): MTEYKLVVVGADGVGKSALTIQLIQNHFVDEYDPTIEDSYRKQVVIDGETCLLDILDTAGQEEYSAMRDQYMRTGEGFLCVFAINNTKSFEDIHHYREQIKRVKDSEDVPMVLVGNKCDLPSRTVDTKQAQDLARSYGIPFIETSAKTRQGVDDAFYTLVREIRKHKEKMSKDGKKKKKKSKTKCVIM
Chain of KRas Q61H mutant (P01116-2 other isoform, or with tags, fused parts or gaps Q61H): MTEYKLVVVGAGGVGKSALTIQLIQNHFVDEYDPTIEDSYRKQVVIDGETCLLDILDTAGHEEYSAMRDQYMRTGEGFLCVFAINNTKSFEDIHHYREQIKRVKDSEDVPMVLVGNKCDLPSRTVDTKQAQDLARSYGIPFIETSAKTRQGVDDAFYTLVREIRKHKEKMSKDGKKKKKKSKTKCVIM

Oc1nc(-c2ccccn2)nc2c(C3CCCC3)csc12
% Inhibition at 20 μM, KRas Q61H (KRas Q61H mutant): D (D = 76-100% inhibition)

CCOC(=O)c1sc(N(C2CC2)S(=O)(=O)c2cc(F)ccc2F)nc1C
inhibition at 20 µM [1, 5]: 25 to 50%

COc1nc(-c2ccccn2)nc2c(C)c(C(=O)N3CCN(c4ccccc4)CC3)sc12
inhibition at 20 µM (KRas Q61H mutant): 51 to 75%
inhibition at 20 µM [1, 6]: 51 to 75%
inhibition at 20 µM ([2]; 20 μM compound): 51 to 75%

CC(C)(C(=O)Nc1cc(-c2ccccn2)nc2sccc12)c1ccc(C#N)cc1
inhibition at 30 µM [3]: 76 to 100%
inhibition at 30 µM [4]: 1 to 25%

O=C(c1csc2c(O)nc(-c3ccccn3)nc12)N1CCN(c2ccccc2)CC1
inhibition at 30 µM [3]: 76 to 100%
inhibition at 30 µM [4]: 51 to 75%

CC(C)COc1ccc(-c2csc3c(O)nc(-c4ccccn4)nc23)nc1
inhibition at 30 µM [3]: 76 to 100%
inhibition at 30 µM [4]: 51 to 75%

O=C(NCC(F)(F)F)c1ccc(CN(Cc2cc(Cl)cc3c2OCOC3)C2CC2)cc1
inhibition at 20 µM [1, 6]: 25 to 50%

COc1cc(CNc2nc(-c3ccccn3)nc3scc(-c4ccccc4)c23)ccc1OCC(N)=O
inhibition at 30 µM [3]: 76 to 100%
inhibition at 30 µM [4]: 76 to 100%

O=C(CCc1cnn(-c2ccccc2)c1)Nc1nnc(-c2ccccn2)[nH]1
inhibition at 30 µM [3]: 26 to 50%
inhibition at 30 µM [4]: 1 to 25%

CCN(CC)S(=O)(=O)c1cc(C)c(C)c(NC(=O)CCc2c(C)cc(-c3ccccn3)nc2O)c1
inhibition at 20 µM [1, 7]: 51 to 75%

COc1cccc(C(=O)Nc2nc(-c3ccccn3)cs2)c1
inhibition at 30 µM [3]: 1 to 25%
inhibition at 30 µM [4]: 0%

Cn1cnc(-c2nc(O)c3c(C4C=CC=CC4)c(-c4ccncc4)sc3n2)c1 (centres unmarked)
inhibition at 20 µM (KRas Q61H mutant): 1 to 25%
inhibition at 20 µM [1, 6]: 1 to 25%
inhibition at 20 µM ([2]; 20 μM compound): 1 to 25%

O=C(NCCc1cnc(O)cn1)c1csc2nc(-c3ccccn3)nc(N3CCS(=O)(=O)CC3)c12
inhibition at 30 µM [3]: 51 to 75%
inhibition at 30 µM [4]: 0%

COc1cccc(-c2nc(C(=O)N3CCC(c4ccccc4)CC3)cs2)c1OC
inhibition at 20 µM [1, 6]: 25 to 50%

CC(C)c1cnc(CN2CC(C)N(Cc3ncc(C(C)C)o3)c3ccccc32)o1 (centres unmarked)
inhibition at 20 µM [1, 6]: 25 to 50%

COCCNc1nc(-c2cccc(C)n2)nc2sc(-c3ccccc3)c(-c3ccccc3)c12
inhibition at 30 µM [3]: 26 to 50%
inhibition at 30 µM [4]: 26 to 50%

CN(CC(=O)N1CCOCC1)c1nc(-c2ccccn2)nc2scc(-c3ccccc3)c12
inhibition at 30 µM [3]: 1 to 25%
inhibition at 30 µM [4]: 1 to 25%

Cc1sc2c(O)nc(-c3nccn3C)nc2c1-c1ccccc1Cl
inhibition at 20 µM (KRas G12C mutant; 20 μM compound): 1 to 25%
inhibition at 20 µM (KRas wild type; 20 μM compound): 25 to 50%

O=C(Nc1nc(-c2ccccn2)cs1)c1cccc(F)c1
inhibition at 30 µM [3]: 1 to 25%
inhibition at 30 µM [4]: 0%

O=C(c1csc2c(O)nc(-c3ccccn3)nc12)N1CCN(c2cccnc2)CC1
inhibition at 20 µM (KRas G12C mutant; compound at 20 μM): 25 to 50%
inhibition at 20 µM [1, 5]: 51 to 75%
inhibition at 20 µM (KRas wild type; compound at 20 μM): 76 to 100%
inhibition at 20 µM (KRas G12D mutant protein; compound at 20 μM): 51 to 75%

Brc1csc2nc(-c3ccccn3)nc(Br)c12
inhibition at 30 µM [3]: 76 to 100%
inhibition at 30 µM [4]: 76 to 100%

Nc1nc(-c2ccccn2)nc2scc(Br)c12
inhibition at 30 µM [3]: 1 to 25%
inhibition at 30 µM [4]: 0%

Cc1ccc(OCc2nnc(SCC3CCCOC3)o2)cc1 (centres unmarked)
inhibition at 20 µM [1, 5]: 1 to 25%

Cc1sc2nc(-c3cnccn3)[nH]c(=O)c2c1-c1ccccc1
inhibition at 20 µM [1, 5]: 25 to 50%

COc1cnc(CNC(=O)c2csc3nc(-c4ccccn4)nc(N)c23)[nH]c1=O
inhibition at 20 µM (KRas Q61H mutant): 25 to 50%
inhibition at 20 µM ([2]; 20 μM compound): 25 to 50%

CC(NC(=O)c1csc(-c2ccccc2)n1)c1ccccn1 (centres unmarked)
inhibition at 20 µM [1, 6]: 1 to 25%

COc1ccc(CCOC(=O)Nc2ccnc(-c3ccccn3)n2)cn1
inhibition at 20 µM [1, 5]: 25 to 50%

OCC1(Cc2ccccc2)CCCN1c1nc(-c2ccccc2)nc2c1CCC2 (centres unmarked)
inhibition at 20 µM [1, 6]: 25 to 50%

COc1ccc(C(=O)Nc2nc(-c3ccccn3)cs2)cn1
inhibition at 30 µM [3]: 76 to 100%
inhibition at 30 µM [4]: 51 to 75%

CC(C)COc1ccc(-c2csc3c(O)nc(-c4nccn4C)nc23)cn1
inhibition at 30 µM [3]: 76 to 100%
inhibition at 30 µM [4]: 76 to 100%

CS(=O)(=O)CCCC(=O)N1CCCc2c(O)nc(-c3ccccn3)nc21
KRas G12D Q61H % Inh. ([1]; 20 μM): C (C = 51-75% inhibition)

O=C(NCCc1cncs1)c1csc2nc(-c3ccccn3)nc(N3CCOCC3)c12
inhibition at 20 µM ([2]; compound at 20 μM): 1 to 25%

CC(C)C(=O)Nc1nc(CC(=O)Nc2nnc(-c3ccccc3)[nH]2)cs1
inhibition at 30 µM [3]: 0%
inhibition at 30 µM [4]: 1 to 25%

Cc1cc2nc(-c3ccccn3)nc(O)c2s1
inhibition at 20 µM (KRas G12C mutant; compound at 20 μM): 1 to 25%
inhibition at 20 µM (KRas wild type; compound at 20 μM): 25 to 50%

COc1ccc(CCNC(=O)c2cc(S(=O)(=O)N3CCCCCC3)ccc2OC)cc1OC
inhibition at 20 µM [1, 5]: 25 to 50%

COc1ccccc1OCC(=O)Nc1nnc(-c2ccccn2)[nH]1 [drawing 2004]
inhibition at 30 µM [3]: 26 to 50%
inhibition at 30 µM [4]: 0%

Oc1nc(-c2ccccn2)nc(Oc2cccc(C(F)(F)F)c2)c1O
% Inhibition at 20 μM, KRas G12C (KRas G12C mutant; 20 μM compound): B (B = 25-50% inhibition)

COCc1ccc(C2CCCN2c2ccc(C#N)c(C(F)(F)F)c2)o1 (centres unmarked)
inhibition at 20 µM [1, 6]: 25 to 50%

O=C(c1csc2c(O)nc(-c3ccccn3)nc12)N1CCNC(Cc2cccc(F)c2)C1 (centres unmarked)
inhibition at 30 µM [3]: 26 to 50%
inhibition at 30 µM [4]: 1 to 25%

COCCN(Cc1ccccc1)CC(O)OCC(c1ccc(OC)cc1)c1ccc(OC)cc1 (centres unmarked)
inhibition at 20 µM [1, 6]: 1 to 25%

Cc1cc(OC(C)COc2ccc(Oc3ccccc3)cc2)ncc1C(F)(F)F (centres unmarked)
inhibition at 20 µM [1, 6]: 51 to 75%

O=C(CCCc1cccnc1)N1CCCc2c(O)nc(-c3ccccn3)nc21
inhibition at 20 µM (KRas G12C mutant; compound at 20 μM): 51 to 75%
inhibition at 20 µM [1, 5]: 51 to 75%
inhibition at 20 µM (KRas wild type; compound at 20 μM): 25 to 50%
inhibition at 20 µM (KRas G12D mutant protein; compound at 20 μM): 51 to 75%

CC(C)c1ccc(NC(=O)CCc2c(O)cc(-c3ccccn3)nc2O)cc1
inhibition at 20 µM [1, 7]: 51 to 75%

Oc1nc(-c2ccccn2)nc2c(-c3ccccc3)csc12
inhibition at 20 µM (KRas G12C mutant; compound at 20 μM): 1 to 25%

Nc1nc(-c2ccccn2)nc2c(-c3ccccn3)csc12
inhibition at 30 µM [3]: 76 to 100%
inhibition at 30 µM [4]: 76 to 100%

COc1cc(CCNC(=O)c2csc3nc(-c4ccccn4)nc(N4CCOCC4)c23)ccn1
inhibition at 30 µM [3]: 1 to 25%
inhibition at 30 µM [4]: 0%

O=C(Nc1nnc(-c2ccccn2)s1)c1csc(-c2ccco2)n1
inhibition at 30 µM [3]: 51 to 75%
inhibition at 30 µM [4]: 0%

COCCNc1nc(-c2nccn2C)nc2sc(-c3ccccc3)c(-c3cccnc3)c12
inhibition at 20 µM (KRas G12C mutant; 20 μM compound): 25 to 50%
inhibition at 20 µM (KRas wild type; 20 μM compound): 51 to 75%
inhibition at 20 µM (KRas G12D mutant protein; 20 μM compound): 25 to 50%

Cc1ccccc1N(CC(=O)NCC1CCCCCCC1)S(C)(=O)=O
inhibition at 20 µM [1, 6]: 1 to 25%

CCC(C)c1csc2c(O)nc(-c3ccccn3)nc12 (centres unmarked) [drawing 2332]
inhibition at 30 µM [3]: 26 to 50%
inhibition at 30 µM [4]: 1 to 25%

CN(C)Cc1cc(F)cc(-c2csc3c(O)nc(-c4ccccn4)nc23)c1
inhibition at 30 µM [3]: 76 to 100%
inhibition at 30 µM [4]: 51 to 75%

CCOc1cc(CN(C(=O)CCc2nc(-c3ccsc3)no2)C2CC2)ccc1OC(F)F
inhibition at 20 µM [1, 6]: 25 to 50%

COc1ccccc1OCC(=O)Nc1nnc(-c2ccccn2)[nH]1 [drawing 2552]
inhibition at 20 µM [1, 7]: 51 to 75%

N#Cc1ccc(C2CCCN2c2ccco2)cc1C(F)(F)F (centres unmarked)
inhibition at 20 µM [1, 5]: 1 to 25%

COCCNc1nc(-c2nccn2C)nc2sc(-c3ccccc3)c(-c3ccccc3)c12
inhibition at 20 µM (KRas G12D mutant protein; 20 μM compound): 0%
